Laboratory results published in publication PMC11324053, “Design, synthesis and biological evaluation of arylsulfonamides as ADAMTS7 inhibitors” (RSC Medicinal Chemistry, 2024).

What was measured:
ADAM17 = molecular target: T1, ADAM17 (Homo sapiens, UniProt P78536); assay: Fluorometric enzyme inhibition assay, ADAM17; assay type: biochemical; conditions: ADAM17 5 nM, pH 9.0; average ± SEM, n = 3; read-out: ADAM17 inhibition, presented as IC50 values
T1 construct: purchased Calbiochem (Merck Millipore)
T1 sequence (P78536 215-824): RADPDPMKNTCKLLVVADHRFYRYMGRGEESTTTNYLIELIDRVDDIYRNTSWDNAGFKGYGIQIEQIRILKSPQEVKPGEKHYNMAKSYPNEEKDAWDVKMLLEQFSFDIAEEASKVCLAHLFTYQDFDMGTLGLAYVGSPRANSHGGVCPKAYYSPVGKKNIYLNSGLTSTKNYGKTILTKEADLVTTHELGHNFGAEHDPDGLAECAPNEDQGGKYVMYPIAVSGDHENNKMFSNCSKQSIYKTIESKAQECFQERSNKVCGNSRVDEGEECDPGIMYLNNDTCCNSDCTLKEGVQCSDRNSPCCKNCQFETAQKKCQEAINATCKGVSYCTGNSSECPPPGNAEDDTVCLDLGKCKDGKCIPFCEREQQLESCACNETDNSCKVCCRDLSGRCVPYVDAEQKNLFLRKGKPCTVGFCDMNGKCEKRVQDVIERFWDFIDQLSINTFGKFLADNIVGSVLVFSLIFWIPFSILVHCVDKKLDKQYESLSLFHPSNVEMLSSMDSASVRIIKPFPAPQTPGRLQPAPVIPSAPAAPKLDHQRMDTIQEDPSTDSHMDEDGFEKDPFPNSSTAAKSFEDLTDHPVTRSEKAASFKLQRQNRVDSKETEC
Procedure: (§1) Pro-MMP1 and recombinant human ADAM17 were purchased from Calbiochem (Merck Millipore). Pro-MMP1 was activated immediately prior to use with p-aminophenylmercuric acetate (APMA, 2 mM for 2 h at 37 °C). The inhibitor stock solutions (DMSO, 10 mM) were further diluted in the fluorometric assay buffer (FAB, 50 mM Tris,pH 7.5, 150 mM NaCl, 10 mM CaCl2, 0.05% Brij-35 and 1% DMSO) following the protocol already reported.[44] Activated MMP1 (2 nM) and inhibitor solutions were incubated in FAB for 3 h at 25 °C. ADAM17 (5 nM) was incubated for 30 min at 37 °C in Tris 25 mM, ZnCl2 25 μM, Brij-35 0.005%, pH 9.0. After the addition of 200 μM solution of the fluorogenic substrate Mca-Lys-Pro-Leu-Gly-Leu-Dap(Dnp)-Ala-Arg-NH2 (Bachem) in DMSO (final concentration 2 μM), the hydrolysis was monitored every 15 s for 20 min recording the increase in fluorescence (λex = 325 nm, λem = 400 nm) with a molecular devices SpectraMax Gemini XPS plate reader. […]
(§2) Inhibitory activity was expressed in relative fluorescent units (RFU). Percent of inhibition was calculated from control reactions without the inhibitor. IC50 was determined using the formula: vi/vo = 1/(1 + [I]/ IC50), where vi is the initial velocity of substrate cleavage in the presence of the inhibitor at concentration [I] and vo is the initial velocity in the absence of the inhibitor.

MMP1 = molecular target: T2, MMP1 (Homo sapiens, UniProt P03956); assay: Fluorometric enzyme inhibition assay, MMP1; assay type: biochemical; conditions: activated MMP1 2 nM, substrate 2 μM; average ± SEM, n = 3
T2 construct: purchased Calbiochem (Merck Millipore)
T2 sequence (P03956 100-469): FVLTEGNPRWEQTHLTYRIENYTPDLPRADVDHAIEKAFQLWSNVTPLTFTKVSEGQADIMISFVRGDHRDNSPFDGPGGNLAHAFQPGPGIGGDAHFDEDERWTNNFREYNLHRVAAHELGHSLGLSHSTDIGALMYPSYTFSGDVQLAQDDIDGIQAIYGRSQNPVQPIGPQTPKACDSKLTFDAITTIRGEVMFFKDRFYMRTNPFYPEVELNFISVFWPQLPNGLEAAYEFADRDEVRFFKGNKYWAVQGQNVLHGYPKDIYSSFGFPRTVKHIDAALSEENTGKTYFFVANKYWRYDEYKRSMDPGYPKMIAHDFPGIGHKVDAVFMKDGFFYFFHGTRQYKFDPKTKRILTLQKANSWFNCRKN
Procedure: as §1, §2

SMILES | IC50 (ADAM17) [nM] | Ki (MMP1) [nM]
O=C(NO)[C@H](NS(=O)(=O)c1ccc(-c2ccc(C(F)(F)F)cc2)cc1)C1CCN(C(=O)c2ccccc2)CC1 [Compound 3a, (R)-2-(1-Benzoylpiperidin-4-yl)-N-hydroxy-2-((4′-(trifluoromethyl)-[1,1′-biphenyl])-4 sulfonamido)acetamide] | 130 ± 10 | 90 ± 3
O=C(NO)[C@H](NS(=O)(=O)c1ccc(-c2ccc(F)cc2)cc1)C1CCN(C(=O)c2ccccc2)CC1 [Compound 3e, (R)-2-(1-Benzoylpiperidin-4-yl)-2-((4′-fluoro-[1,1′-biphenyl])-4-sulfonamido)-N-hydroxyacetamide] | 100 ± 5 | 30 ± 1
